We go through 1 compound from patent US10376512B1, “Crystal of aniline pyrimidine compound of trifluoroethyl substituted indole and salt thereof” (CHIA TAI TIANQING PHARMACEUTICAL GROUP CO., LTD., priority 2018, dated 2019).

The series can be described thus: Stability test for crystals under accelerated conditions (light, high temperature, high humidity). Type of series: physicochemical. The following applies: light 5000 Lx±500 Lx; high temperature 60° C.±2° C.; high humidity 75% RH±5% RH; samples taken on the 5th, 10th and 30th day. The procedure:
The stability of the crystal according to the disclosure may be detected by placing the crystal in a high temperature, a high humidity, or a lighting condition. 40-60° C. may be selected for the high temperature, the relative humidity of 75%-92.5% RH may be selected for the high humidity condition, and 5000 Lux may be selected for the lighting condition. The crystal stability may be evaluated by investigating a plurality of data, such as content, total content of impurities, or water content, of the sample, and comprehensively evaluating the parameters according to the properties of the product.
The stability of the crystal according to the disclosure was investigated under accelerated test conditions according to the Guiding Principles for Stability Test of Crude Drugs and Pharmaceutical Preparations. The stabilities of the crystals obtained in Examples 1-8 were tested in a light environment at 5000 Lx±500 Lx, a high temperature environment at 60° C.±2° C., and a high humidity environment at 75% RH±5% RH, respectively. Samples were taken on the 5th day, the 10th day, and the 30th day, respectively, and the appearance properties, moisture contents, and total impurities of related substances of the samples were recorded for comparison with the initial data.

For `C=CC(=O)Nc1cc(Nc2nccc(-c3cn(CC(F)(F)F)c4ccccc34)n2)c(OC)cc1N(C)CCN(C)C` [Example 3], the “stability (appearance properties, moisture contents, total impurities of related substances compared with the initial data)” value is given as “better stability”.
